Assay [1] relates to DBA/1J mice with collagen induced arthritis. Kind of assay: Collagen-induced arthritis in mice. Particulars: compound of example 7 5 mg/kg, s.c., n=10; Enbrel 3 mg/kg, s.c., n=6; vehicle control 15.14+1.0. The assay is classed as in vivo. On the procedure: The experiment was designed as in reference, J. Experimental Medicine, 162, 637-646 (1985), the disclosure of which is incorporated by reference for the teaching of the experiment.
Male DBA/1J mice with body weight range of 18-22 g, aged 8-10 weeks were immunized with an emulsion equivalent to 200 μg of type II collagen (Elastin products, USA) in Freund's Complete Adjuvant (Sigma, USA), injected intradermally at the base of the tail. The animals were boosted with 200 μg of freshly prepared typeII collagen emulsion emulsified in Freund's Complete Adjuant (Sigma, USA) on day 21. A group of naïve mice was also maintained alongside. Naïve animals are the animals which are neither immunized for induction of arthritis nor do they receive any treatment. This group is maintained to take care of the normal changes in the paw thickness with age.
From day 23, mice were examined daily once for the signs of rheumatoid arthritis, using the articular index and paw thickness as parameters. Articular index scoring was performed employing the following criteria:
• 0: No redness or swelling • 1: Redness, but no swelling • 2: Redness and swelling of the paw • 3: Redness and severe swelling of the paw Hind limbs: Scale 0-4 • 0: No redness or swelling • 1: Redness and mild swelling of paw • 2: Redness and moderate swelling of paw and/or swelling of at least one of the digits • 3: Redness and moderate/severe swelling of paw, swelling of ankle joint and/or swelling of one or more digits • 4: Redness and severe swelling of paw, digits and ankle joint, with joint stiffness Mice with a minimum hind paw score of 2, of even one paw, were inducted into the study. Mice were randomized into the various study groups, each group having at least eight animals, and were administered the vehicle (0.5% CMC, 10 mL/kg p.o. and s.c. twice daily), the test compound (5 mg/kg, p.o. and s.c., twice daily) and standard compound Enbrel (Wyeth Limited, UK), 3 mg/kg, s.c., once daily. The test compound was administered as a suspension in CMC. The requisite quantity of the compound was accurately weighed and was hand-pulverized using pestle-mortar. After mixing with minimum quantity of Tween 80 necessary to wet the compound, requisite quantity of 0.5% CMC solution was added and the compound was ground with CMC till the uniform suspension was obtained. Standard compound ‘Enbrel’ was used as an aqueous solution. The dosing of the compounds was done for 12 continuous days.
The following parameters were observed and recorded daily, • 1. Body weight • 2. Articular index • 3. Paw thickness of hind limbs only, in mm using a tension free calipers • 4. Any significant observation regarding the condition of the animals.
On 13th day morning, 1 h after the compound treatment, the animals were sacrificed, blood withdrawn, and plasma collected for drug level analyses. Also, the hind limbs of all the animals were preserved for histopathological evaluations.

The test system of assay [2] is TNF-α. Kind of assay: Cytokine release assay in hPBMCs: TNF-α. The format is cell-based. To be noted: Homo sapiens; Table 3: PHA-PMA induced hPBMC's, 48 h; read-out: TNF-α IC50. On the procedure: (§1) hPBMCs were obtained from healthy donors by centrifugation of heparinized venous blood over Ficoll/Hypaque solution (Histopaque-1077, Sigma, USA). Isolated hPBMCs were suspended in RPMI 1640 culture medium supplemented with 10% FBS and seeded at a density of 50,000 cells/well in a 96-well plate (Nunc, USA). The cells were incubated at 37° C., 5% CO2 for a period of 24 h. These cells were used for the lymphocyte proliferation as well as cytokine release assay.
(§2) The plated cells were treated with different concentrations of the test compound (prepared as mM stock in DMSO and diluted with DMSO to achieve the following final concentrations in the assay: 100, 10, 1, 0.1, 0.01, 0.001, 0.0001, 0.00001 and 0.000001 μM) and incubated for 30 min. The cells were then stimulated with PHA (prepared as 1 mg/mL stock in RPMI 1640 culture medium and used at a final concentration of 5 μg/mL). FK506 was used as a standard. The plates were incubated at 37° C., 5% CO2 for 48 h. The cytokines in the supernatant collected were detected using ELISA kit (BD biosciences, USA). The cytokines evaluated in the assay were TNF-α, IL-2, IL-6, and IFN-γ.

Assay [3] deals with IFN-γ. Nature of the assay: Cytokine release assay in hPBMCs: IFN-γ. The assay is classed as cell-based. To be noted: Homo sapiens; Table 3: PHA-PMA induced hPBMC's, 48 h; read-out: IFN-γ IC50. On the procedure:
as §1, §2

Assay [4] deals with TNF-α. Nature of the assay: Screening in LPS stimulated THP-1 cells: TNF-α. The assay is classed as cell-based. Particulars: Homo sapiens, 24 h, ELISA. On the procedure: (§3) IL-6 (BD Biosciences, USA) production by LPS (Escherchia coli 0127:B8, Sigma, USA) in THP-1 cells (ATCC number: TIB202) was designed as in reference, Journal of Immunology, 151, 5631-5638, (1993), the disclosure of which is incorporated by reference for the teaching of the assay.
(§4) THP-1 cells were cultured in RPMI 1640 culture medium (Gibco BRL, UK) containing 100 U/mL penicillin and […] streptomycin, (100× solution, Sigma, USA) containing 10% FBS (JRH Biosciences, USA). 25,000 cells were seeded per well in 96-well plate (Nunc, USA). The cells were differentiated with PMA (Sigma, USA, prepared as 100 μg/mL stock in RPMI and was diluted to 5 ng/mL). The test compound (prepared as 20 mM stock in DMSO and diluted with DMSO to achieve the following final concentrations in the assay: 100, 10, 1, 0.1, 0.01, 0.001 and 0.0001 μM) or vehicle (0.5% DMSO) were added to the cells and the cells were incubated for 30 min at 37° C. LPS (Sigma, USA, prepared as 1 mg/mL stock in PBS) was added to achieve a final concentration of 1 μg/mL. Plates were incubated at 37° C. for 24 h at 5% CO2. Supernatants were harvested, and assayed for TNF-α and IL-6 by ELISA as described by the manufacturer (BD Biosciences, USA). Percent inhibition of cytokine release compared to the control was calculated. The IC50 values were calculated by a nonlinear regression method.

The subject of assay [5] is IL-2. Nature of the assay: Cytokine release assay in hPBMCs: IL-2. The format is cell-based. Particulars: Homo sapiens; Table 3: PHA-PMA induced hPBMC's, 48 h; read-out: IL-2 IC50. On the procedure:
as §1, §2

Assay [6] relates to IL-6. Kind of assay: Screening in LPS stimulated THP-1 cells: IL-6. The assay is classed as cell-based. To be noted: Homo sapiens, 24 h, ELISA. On the procedure:
as §3, §4

The subject of assay [7] is IL-6. Kind of assay: Cytokine release assay in hPBMCs: IL-6. The assay is classed as cell-based. To be noted: Homo sapiens; Table 3: PHA-PMA induced hPBMC's, 48 h; read-out: IL-6 IC50. On the procedure: as §1, §2
The test system of assay [8] is IL-6. Nature of the assay: Human monocyte assay (LPS-induced): IL-6. The format is cell-based. Particulars: LPS stimulated human monocytes, 5 h. From the text: The assay was designed as in reference, Physiological Research, 52, 593-598, (2003), the disclosure of which is incorporated by reference for the teaching of the assay.
The objective of the assay is to determine whether compounds of the present invention—mediated inhibition of LPS-induced cytokines from monocytic THP-1 cell line translates to physiologically relevant human cells. Accordingly, the effect of compounds of the present invention on LPS—induced cytokine production from freshly isolated human monocytes was ascertained.
Peripheral blood was collected from healthy donors into potassium EDTA vacutainer tubes (BD Biosciences, USA). hPBMCs were isolated using density gradient separation (Histopaque-1077; Sigma, USA) and suspended in assay medium which is RPMI culture medium (Sigma, USA) containing 10% heat inactivated FBS (JRH Biosciences, Australia), 100 U/mL penicillin (Sigma, USA) and […] streptomycin (Sigma, USA). Monocytes in the hPBMCs were counted using a Coulter Counter following which the cells were resuspended at 2×10^5 monocytes/mL of assay medium. A cell suspension containing 2×10^4 monocytes was aliquoted per well of a 96-well plate (Nunc, USA). Subsequently, the hPBMCs were incubated for 4-5 h at 37° C., 5% CO2. During the incubation, the monocytes adhered to the bottom of 96-well plate. Following the incubation, the non-adherent lymphocytes were washed and assay medium was added to adherent monocytes. After 48 h of incubation at 37° C., 5% CO2, monocytes were pre-treated with various concentrations of test compound (prepared as 20 mM stock in DMSO; 1 μL of […] concentrated solution of test compound was dissolved in 200 μL cell suspension to achieve a final concentration of 0.03, 0.1, 0.3, 1, 3, 10, 30 and 100 μM) or vehicle (0.5% DMSO) or 10 μM dexamethasone (standard IL-6 and TNF-α inhibitor, Sigma, USA) for 30 min at 37° C., 5% CO2 and stimulated with 1 μg/mL LPS (Escherchia coli 0111:B4, Sigma, USA). The cells were then incubated for 5 h at 37° C., 5% CO2 following which supernatants were collected, stored at −70° C. and were assayed later for IL-6, and TNF-α by ELISA (OptiEIA ELISA sets, BD Biosciences, USA). The IC50 values were calculated by a nonlinear regression method using Graph Pad software (Prism 3.03).

On to Enbrel, for which the “Histological score of the section of paws” value in assay [1] is on record as 5.8+0.95.

On to `C/C=C/C(O)C(C)/C=C/C(=NOCC(=O)O)C(C)C(O)C(C)C1OC(=O)/C(OC)=C/C(C)=C/C(C)C(O)C(CC)C(O)C(C)C/C(C)=C/C=C/C1OC` (stereo in doubt) [Compound of example 10, ((Z)-((6E,10E)-2-((4E,6E,14E,16Z)-11-Ethyl-10,12-dihydroxy-3,17-dimethoxy-7,9,13,15-tetramethyl-18-oxooxacyclooctadeca-4,6,14,16-tetraen-2-yl)-3,9-dihydroxy-4,8-dimethyldodeca-6,10-dien-5-ylidene)aminooxy)acetic acid], for which the IC50 is 200 nM in assay [2]; 2000 nM in assay [3]; greater than 30000 nM in assay [4]; 200 nM in assay [5]; 2300 nM in assay [6]; 20 nM in assay [7].

For `C/C=C/C(O)C(C)/C=C/C(=NOCC(=O)N1CCC(N2CCCCC2)CC1)C(C)C(O)C(C)C1OC(=O)/C(OC)=C/C(C)=C/C(C)C(O)C(CC)C(O)C(C)C/C(C)=C/C=C/C1OC` (stereo in doubt) [Compound of example 14, (3Z,5E,13E,15E)-18-((5Z,6E,10E)-5-(2-(1,4′-Bipiperidin-1′-yl)-2-oxoethoxyimino)-3,9-dihydroxy-4,8-dimethyldodeca-6,10-dien-2-yl)-9-ethyl-8,10-dihydroxy-3,17-dimethoxy-5,7,11,13-tetramethyloxacyclooctadeca-3,5,13,15-tetraen-2-one], the IC50 in assay [2] worked out at 20 nM; in assay [3], 20 nM; in assay [4], 18000 nM; in assay [5], 5 nM; in assay [8], 150 nM; in assay [6], 130 nM. In addition, in assay [7], the IC50 amounted to 10 nM.

`C/C=C/C(O)C(C)/C=C/C(=O)NC(C)C(O)C(C)C1OC(=O)/C(OC)=C/C(C)=C/C(C)C(O)C(CC)C(O)C(C)C/C(C)=C/C=C/C1OC` (stereo not drawn) [Compound of example 16, (2E,6E)-N-(4-((4E,6E,14E,16Z)-11-Ethyl-10,12-dihydroxy-3,17-dimethoxy-7,9,13,15-tetramethyl-18-oxooxacyclooctadeca-4,6,14,16-tetraen-2-yl)-3-hydroxypentan-2-yl)-5-hydroxy-4-methylocta-2,6-dienamide]: the half-maximal inhibitory concentration (IC50) in assay [4] is greater than 100000 nM; in assay [6], 30 nM.

With `C/C=C/C(O)C(C)/C=C/C(=NOCC(=O)N1CCN(C)CC1)C(C)C(O)C(C)C1OC(=O)/C(OC)=C/C(C)=C/C(C)C(O)C(CC)C(O)C(C)C/C(C)=C/C=C/C1OC` (stereo in doubt) [Compound of example 11, (3Z,5E,13E,15E)-18-((5Z,6E,10E)-3,9-Dihydroxy-4,8-dimethyl-5-(2-(4-methylpiperazin-1-yl)-2-oxoethoxyimino)dodeca-6,10-dien-2-yl)-9-ethyl-8,10-dihydroxy-3,17-dimethoxy-5,7,11,13-tetramethyloxacyclooctadeca-3,5,13,15-tetraen-2-one], the IC50 is 50 nM in assay [2]; 5000 nM in assay [3]; greater than 30000 nM in assay [4]; 50 nM in assay [5]; greater than 10000 nM in assay [8]; 300 nM in assay [6]. Moreover, the IC50 in assay [7] turned out to be 10 nM.

Consider `C/C=C/C(O)C(C)/C=C/C(=NOCC(=O)N1CCCCC1)C(C)C(O)C(C)C1OC(=O)/C(OC)=C/C(C)=C/C(C)C(O)C(CC)C(O)C(C)C/C(C)=C/C=C/C1OC` (stereo in doubt) [Compound of example 13, (3Z,5E,13E,15E)-18-((5Z,6E,10E)-3,9-Dihydroxy-4,8-dimethyl-5-(2-oxo-2-(piperidin-1-yl)ethoxyimino)dodeca-6,10-dien-2-yl)-9-ethyl-8,10-dihydroxy-3,17-dimethoxy-5,7,11,13-tetramethyloxacyclooctadeca-3,5,13,15-tetraen-2-one], for which the IC50 in assay [2] was 20 nM; in assay [3], 10000 nM; in assay [4] it was greater than 30000 nM; in assay [5], 200 nM; in assay [8], 1400 nM; in assay [6] it was 200 nM. Further, the IC50 in assay [7] came out at 500 nM.

For the origin of these results see patent publication US20120225889A1, “USE OF MACROCYCLIC LACTONE DERIVATIVES FOR THE TREATMENT OF INFLAMMATORY DISORDERS” (PIRAMAL LIFE SCIENCES LIMITED, priority 2010, published 2012).
